Test results: paper PMC9503898, “Synthesis and Evaluation of Two Long-Acting SSTR2 Antagonists for Radionuclide Therapy of Neuroendocrine Tumors” (Pharmaceuticals, 2022)
Positions of bridges follow the written chain, without caps; N, C: chain ends. Non-standard residues stand in square brackets, D forms with d. Residues, ends and D or L forms follow the SMILES beside them. *: point of attachment. DOTA = O=C(O)CN1CCN(CC(=O)O)CCN(CC(=O)*)CCN(CC(=O)O)CC1; dPhe(4-NHCONH2) = NC(=O)Nc1ccc(C[C@@H](N)C(=O)O)cc1; Dihydroorotyl(S) = O=C1C[C@@H](C(=O)*)NC(=O)N1; Phe(4-Cl) = N[C@@H](Cc1ccc(Cl)cc1)C(=O)O; Phe(4-NH2) = Nc1ccc(C[C@H](N)C(=O)O)cc1

Assays:
U2OS-SSTR2 cells = test: Uptake and internalization assay; format: cell-based, human; conditions: 10^−9 M, 2 h, 37 °C, gamma counter
Method: Human osteosarcoma cells (U2OS) stably expressing the SSTR2 receptor were used in all in vitro cell assays. Cells were cultured in Dulbecco’s modified Eagle’s medium (DMEM) from Gibco (Paisley, UK) supplemented with 2 mM L-glutamine, 10% fetal bovine serum (FBS), 50 units/mL penicillin, and 50 μg/mL streptomycin (Sigma Aldrich; Haarlerbergweg, The Netherlands) and maintained at 37 °C and in a 5% CO2 humidified chamber. Passages were performed weekly using trypsin/EDTA (0.05%/0.02% w/v).
Cells were seeded in 6-well plates 48 h before the experiment (2 × 10^5 cells/well). […] After incubation, medium was removed, and cells were washed twice with PBS. The membrane-bound fraction was collected by incubating cells with an acid buffer (50 mM glycine, 100 mM sodium chloride (NaCl), pH 2.8) for 10 min at rt. Cells were lysed using 0.5 M NaOH for 10 min at rt to acquire the internalized fraction. Both fractions were counted in a γ-counter, and data were expressed as percentage of added dose.

[1] = system: H69 tumor tissues expressing SSTR2; test: Uptake and autoradiography of H69 tumor sections; format: binding, human; conditions: 10^−9 M, 90 min, rt, 10 μm sections, phosphor screen 48 h
Method: Subcutaneous fresh frozen H69 tumor tissues were cut at 10 μm thickness and immediately mounted on Starfrost glass slides (Thermo Scientific; Bleiswijk, The Netherlands). Tissue sections were incubated with washing buffer (167 mM Tris-HCl, 5 mM MgCl2) containing 0.25% BSA for 10 min at rt to prevent nonspecific binding. […] Each slide was drained off and washed with PBS. Finally, the slides were exposed to super-resolution phosphor screens for 48 h and imaged with the Cyclone system (PerkinElmer; Waltham, MA, USA). Images were analyzed and quantified using the Optiquant software Version 5 (PerkinElmer; Waltham, MA, USA).

[2] = set-up: method as in PMID 29668724; conditions: literature value; cited from earlier work
in vivo [3] = conditions: mouse, iv, 20 MBq/0.5 nmol per animal, total radioactivity
in vivo [4] = conditions: mouse, iv, 0.5 nmol, total radioactivity

tissue uptake per volume at 4 h (in vivo [3]): 4 ± 0.6 %ID/mL
tissue uptake per volume at 24 h (in vivo [3]): 3.3 ± 0.7 %ID/mL
tissue uptake per volume at 48 h (in vivo [3]): 2.1 ± 0.5 %ID/mL
tissue uptake per volume at 72 h (in vivo [3]): 1.8 ± 0.4 %ID/mL
tissue to tissue ratio at 4 h (in vivo [4]): 0.6 ± 0.05
tissue to tissue ratio at 72 h (in vivo [4]): 1.2 ± 0.3
tissue uptake at 4 h (in vivo [4]; Bone Marrow uptake): 1.1 ± 2 %ID/g
tissue uptake at 4 h (in vivo [4]; Intestine uptake): 0.5 ± 0.1 %ID/g
tissue uptake at 4 h (in vivo [4]; Kidneys uptake): 12.6 ± 1.2 %ID/g
tissue uptake at 24 h (in vivo [4]; Kidneys uptake): 8.6 ± 2.3 %ID/g
tissue uptake at 48 h (in vivo [4]; Kidneys uptake): 4.1 ± 0.2 %ID/g
tissue uptake at 72 h (in vivo [4]; Kidneys uptake): 3.4 ± 1.4 %ID/g
tissue uptake at 4 h (in vivo [4]; Liver uptake): 0.5 %ID/g
tissue uptake at 24 h (in vivo [4]; Liver uptake): 0.3 %ID/g
tissue uptake at 4 h (in vivo [4]; Lung uptake): 1.3 ± 0.3 %ID/g
tissue uptake at 24 h (in vivo [4]; Lung uptake): 0.4 %ID/g
tissue uptake at 4 h (in vivo [4]; Pancreas uptake): 3.5 ± 0.4 %ID/g
tissue uptake at 48 h (in vivo [4]; Pancreas uptake): 0.6 ± 0.1 %ID/g
tissue uptake at 72 h (in vivo [4]; Pancreas uptake): 0.3 %ID/g
tissue uptake at 4 h (in vivo [4]; Skin uptake): 0.3 ± 0.1 %ID/g
tissue uptake at 4 h (in vivo [4]; Spleen uptake): 0.3 ± 0.1 %ID/g
tissue uptake at 4 h (in vivo [4]; Stomach uptake): 1.7 ± 0.3 %ID/g
tissue uptake at 24 h (in vivo [4]; Stomach uptake): 1.5 ± 1.2 %ID/g
tissue uptake at 48 h (in vivo [4]; Stomach uptake): 0.6 ± 0.2 %ID/g
tissue uptake at 72 h (in vivo [4]; Stomach uptake): 0.4 ± 0.1 %ID/g
tissue uptake at 4 h (in vivo [4]; Tumor uptake): 8.4 ± 0.5 %ID/g
tissue uptake at 24 h (in vivo [4]; Tumor uptake): 6.1 ± 0.5 %ID/g
tissue uptake at 48 h (in vivo [4]; Tumor uptake): 4.6 ± 0.3 %ID/g
tissue uptake at 72 h (in vivo [4]; Tumor uptake): 3.6 ± 0.4 %ID/g
Structure (SMILES): C[C@@H](O)[C@@H]1NC(=O)[C@H](CCCCN)NC(=O)[C@@H](Cc2ccc(NC(N)=O)cc2)NC(=O)[C@H](Cc2ccc(NC(=O)[C@@H]3CC(=O)NC(=O)N3)cc2)NC(=O)[C@H](NC(=O)[C@H](Cc2ccc(Cl)cc2)NC(=O)CN2CCN(CC(=O)O)CCN(CC(=O)O)CCN(CC(=O)O)CC2)CSSC[C@@H](C(=O)N[C@H](Cc2ccc(O)cc2)C(N)=O)NC1=O [[^177Lu]Lu-JR11, metal not drawn] ({DOTA}-[Phe(4-Cl)][dC][Phe(4-NH2)](Dihydroorotyl(S))[dPhe(4-NHCONH2)]KTC[dY]-NH2; disulfide 2-7; N-terminus and C-terminus assumed)
Total uptake in U2OS-SSTR2 cells (U2OS-SSTR2 cells): 16.2 ± 3.0 % added dose
Radioactive uptake in H69 tumor tissue sections (autoradiography) [1]: 930 ± 37 DLU/mm^2
Log D7.4 [2]: −2.5 [18]
